The record followed here is ChEMBL document CHEMBL5291721, “A preclinical secondary pharmacology resource illuminates target-adverse drug reaction associations of marketed drugs” (Nat Commun, 2023).

The target in test [1] is T1, Androgen receptor (Rattus norvegicus, UniProt P15207).
T1 sequence (P15207 whole entry): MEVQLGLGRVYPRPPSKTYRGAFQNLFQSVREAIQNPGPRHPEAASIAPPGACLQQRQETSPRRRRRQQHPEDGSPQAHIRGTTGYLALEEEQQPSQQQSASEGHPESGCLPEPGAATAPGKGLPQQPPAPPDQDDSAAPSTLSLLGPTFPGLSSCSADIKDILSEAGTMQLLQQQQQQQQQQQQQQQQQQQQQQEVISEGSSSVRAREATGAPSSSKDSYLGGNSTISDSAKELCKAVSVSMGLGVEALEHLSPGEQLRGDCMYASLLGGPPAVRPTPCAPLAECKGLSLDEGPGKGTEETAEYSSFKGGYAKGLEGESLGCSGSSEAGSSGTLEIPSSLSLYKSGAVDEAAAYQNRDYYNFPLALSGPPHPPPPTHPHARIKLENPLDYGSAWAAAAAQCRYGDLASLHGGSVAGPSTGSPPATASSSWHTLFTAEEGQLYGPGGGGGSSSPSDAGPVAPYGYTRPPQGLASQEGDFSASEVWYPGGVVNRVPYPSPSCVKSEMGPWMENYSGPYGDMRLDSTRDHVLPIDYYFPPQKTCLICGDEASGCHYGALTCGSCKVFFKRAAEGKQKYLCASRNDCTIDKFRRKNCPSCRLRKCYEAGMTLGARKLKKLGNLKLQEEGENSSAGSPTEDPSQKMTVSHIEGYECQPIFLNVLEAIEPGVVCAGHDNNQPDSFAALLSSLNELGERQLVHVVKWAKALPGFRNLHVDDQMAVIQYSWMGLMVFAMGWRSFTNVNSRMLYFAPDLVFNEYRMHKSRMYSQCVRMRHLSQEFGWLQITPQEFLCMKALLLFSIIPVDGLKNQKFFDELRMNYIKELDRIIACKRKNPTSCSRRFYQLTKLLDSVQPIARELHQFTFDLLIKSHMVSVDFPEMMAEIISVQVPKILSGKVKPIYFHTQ
The format is functional.

The target of test [2] is T2, Progesterone receptor (Homo sapiens, UniProt P06401).
T2 sequence (P06401 whole entry): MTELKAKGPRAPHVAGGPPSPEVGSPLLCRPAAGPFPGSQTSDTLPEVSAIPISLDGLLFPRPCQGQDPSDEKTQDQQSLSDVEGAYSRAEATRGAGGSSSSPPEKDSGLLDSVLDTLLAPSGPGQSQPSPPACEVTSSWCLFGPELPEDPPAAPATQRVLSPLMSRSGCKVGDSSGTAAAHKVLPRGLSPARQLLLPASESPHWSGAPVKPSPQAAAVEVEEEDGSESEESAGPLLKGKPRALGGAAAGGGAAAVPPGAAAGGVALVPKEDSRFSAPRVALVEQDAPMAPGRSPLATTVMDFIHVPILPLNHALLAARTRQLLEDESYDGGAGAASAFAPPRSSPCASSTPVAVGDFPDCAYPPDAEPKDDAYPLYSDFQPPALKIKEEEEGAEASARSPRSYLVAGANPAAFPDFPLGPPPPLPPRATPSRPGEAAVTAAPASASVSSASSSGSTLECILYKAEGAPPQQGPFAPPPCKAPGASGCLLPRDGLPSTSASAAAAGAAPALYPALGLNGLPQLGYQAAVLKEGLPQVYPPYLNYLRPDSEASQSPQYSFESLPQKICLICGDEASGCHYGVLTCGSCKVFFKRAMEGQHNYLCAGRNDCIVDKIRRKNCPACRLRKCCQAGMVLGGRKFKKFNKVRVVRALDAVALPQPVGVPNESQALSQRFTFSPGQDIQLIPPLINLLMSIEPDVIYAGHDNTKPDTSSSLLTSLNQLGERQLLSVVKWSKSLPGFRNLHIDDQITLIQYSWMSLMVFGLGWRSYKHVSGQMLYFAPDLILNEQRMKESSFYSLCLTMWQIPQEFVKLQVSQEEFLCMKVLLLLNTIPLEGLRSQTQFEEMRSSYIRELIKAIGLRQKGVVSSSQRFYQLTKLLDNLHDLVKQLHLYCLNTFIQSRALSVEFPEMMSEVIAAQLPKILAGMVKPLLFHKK

In test [3] the target is T3, 5-hydroxytryptamine receptor 1A (Homo sapiens, UniProt P08908).
T3 sequence (P08908 whole entry): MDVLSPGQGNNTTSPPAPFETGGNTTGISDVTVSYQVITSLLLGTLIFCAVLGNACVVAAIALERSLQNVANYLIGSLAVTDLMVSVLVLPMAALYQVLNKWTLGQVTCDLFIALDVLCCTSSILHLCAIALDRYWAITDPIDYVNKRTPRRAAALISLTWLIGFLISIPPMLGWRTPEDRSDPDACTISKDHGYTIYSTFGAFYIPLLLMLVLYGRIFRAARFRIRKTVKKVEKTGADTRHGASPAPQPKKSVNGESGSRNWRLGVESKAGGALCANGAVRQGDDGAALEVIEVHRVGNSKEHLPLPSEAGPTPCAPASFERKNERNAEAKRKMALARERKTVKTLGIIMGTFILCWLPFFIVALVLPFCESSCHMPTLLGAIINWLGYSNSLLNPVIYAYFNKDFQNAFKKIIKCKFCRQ

For test [4], the target named is T4, Alpha-2A adrenergic receptor (Homo sapiens, UniProt P08913).
T4 sequence (P08913 whole entry): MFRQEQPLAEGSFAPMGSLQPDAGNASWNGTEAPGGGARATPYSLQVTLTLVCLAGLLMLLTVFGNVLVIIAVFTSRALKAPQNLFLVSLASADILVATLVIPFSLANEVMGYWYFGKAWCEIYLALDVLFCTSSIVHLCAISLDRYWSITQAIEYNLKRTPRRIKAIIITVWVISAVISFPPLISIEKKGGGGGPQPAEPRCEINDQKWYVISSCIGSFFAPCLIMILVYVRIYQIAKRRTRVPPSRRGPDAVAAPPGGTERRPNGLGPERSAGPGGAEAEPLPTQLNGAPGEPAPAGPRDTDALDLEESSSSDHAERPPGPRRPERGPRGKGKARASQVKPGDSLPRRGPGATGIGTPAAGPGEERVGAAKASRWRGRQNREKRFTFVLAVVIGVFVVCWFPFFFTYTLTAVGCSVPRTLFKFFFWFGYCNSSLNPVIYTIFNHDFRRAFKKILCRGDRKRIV

The target of test [5] is Histamine H2 receptor (Homo sapiens, UniProt P25021).
Also: assay procedure not described here.

Histamine H2 receptor, sequence (P25021 whole entry): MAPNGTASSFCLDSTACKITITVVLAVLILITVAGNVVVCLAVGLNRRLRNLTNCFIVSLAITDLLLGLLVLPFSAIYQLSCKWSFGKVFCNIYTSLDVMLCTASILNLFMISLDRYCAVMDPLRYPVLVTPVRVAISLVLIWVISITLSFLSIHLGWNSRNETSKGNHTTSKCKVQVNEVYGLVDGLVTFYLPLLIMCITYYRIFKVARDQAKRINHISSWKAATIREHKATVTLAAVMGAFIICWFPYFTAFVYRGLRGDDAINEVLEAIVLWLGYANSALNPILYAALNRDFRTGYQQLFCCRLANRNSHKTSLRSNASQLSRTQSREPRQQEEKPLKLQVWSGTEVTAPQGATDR

One may read the AC50 as the midpoint of the concentration-response curve, whichever way the signal moves. High values mean activity only at high concentration, low ones activity at low concentration. Molecule `N#Cc1ccccc1-c1cc(-c2ccccn2)cn(-c2ccccc2)c1=O` showed an AC50 in test [1] greater than 30 µM.

For the molecule `COc1ccc(/C=C/C(=O)Nc2ccccc2C(=O)O)cc1OC`, in test [1], the AC50 is greater than 30 µM.

The molecule `C=C[C@@]1(C)CC(=O)[C@]2(O)[C@@]3(C)[C@@H](O)CCC(C)(C)[C@@H]3[C@H](OC(=O)CCN(C)C)[C@H](OC(C)=O)[C@@]2(C)O1` yielded an AC50 in test [1] greater than 30 µM.

As to `NCCCC(O)(P(=O)(O)O)P(=O)(O)O` [ALENDRONIC ACID], the concentration at half-maximal activity (AC50) was greater than 30 µM in test [2], greater than 10 µM in test [3], greater than 10 µM in test [4] and greater than 10 µM in test [5].

Turning to `Nc1ccc(C(=O)O)c(O)c1` [AMINOSALICYLIC ACID], the half-maximal activity concentration (AC50) in test [1] was greater than 30 µM.

On to `COc1cc(OC)c(C(=O)CCCN2CCCC2)c(OC)c1` [BUFLOMEDIL], for which the half-maximal activity concentration (AC50) in test [1] was greater than 30 µM.

Take `CCCCC1(CC)C(=O)NC(=O)NC1=O` [BUTETHAL]: the AC50 in test [1] was greater than 30 µM.

Regarding `CCCC(C)(COC(N)=O)COC(=O)NC(C)C` (centres undefined) [CARISOPRODOL], the half-maximal activity concentration (AC50) in test [2] was greater than 30 µM; in test [3], greater than 10 µM; in test [4], greater than 10 µM; in test [5], greater than 10 µM.

On to `CC(C)(C)NCC(O)c1cc(Cl)c(N)c(Cl)c1` (centres undefined) [CLENBUTEROL], for which the AC50 in test [1] is greater than 30 µM.

Molecule `CCC(C)(Oc1ccc(C2(c3ccc(OC(C)(CC)C(=O)O)cc3)CCCCC2)cc1)C(=O)O` (centres undefined) [CLINOFIBRATE] yielded a half-maximal activity concentration (AC50) in test [1] greater than 30 µM.

As for `N[C@H](Cc1cc(I)c(Oc2cc(I)c(O)c(I)c2)c(I)c1)C(=O)O` [DEXTROTHYROXINE], the AC50 in test [2] was greater than 30 µM; in test [3] it was greater than 10 µM; in test [4] it was greater than 10 µM; in test [5], greater than 10 µM.

Molecule `CCCCC[C@H](O)/C=C/[C@H]1[C@H](O)CC(=O)[C@@H]1C/C=C\CCCC(=O)O` [DINOPROSTONE] registered a concentration at half-maximal activity (AC50) in test [1] of 23 µM.

For the molecule `COC(=O)N[C@@H](C)CNc1nccc(-c2cn(C(C)C)nc2-c2cc(Cl)cc(NS(C)(=O)=O)c2F)n1` [ENCORAFENIB], the AC50 in test [1] is greater than 30 µM.

As for `Clc1ccc2c(c1)C(c1ccccc1)=NCc1nncn1-2` [ESTAZOLAM], the concentration at half-maximal activity (AC50) in test [2] is greater than 30 µM; in test [3] it was greater than 10 µM.

In test [3], `CCCN(CC)C(CC)C(=O)Nc1c(C)cccc1C` (centres undefined) [ETIDOCAINE] showed a half-maximal activity concentration (AC50) greater than 30 µM.

In the case of `CC(=O)OCC(CCn1cnc2cnc(N)nc21)COC(C)=O` [FAMCICLOVIR], the concentration at half-maximal activity (AC50) in test [2] was greater than 30 µM; in test [3] it was greater than 10 µM; in test [4] it was greater than 10 µM; in test [5], greater than 10 µM.

Consider `O=C(O)c1ccccc1Nc1cccc(C(F)(F)F)c1` [FLUFENAMIC ACID], for which the figures for the half-maximal activity concentration (AC50) in test [2] and in test [3] were greater than 30 µM and greater than 10 µM, respectively.

In turn, `Nc1ccn([C@@H]2O[C@H](CO)[C@@H](O)C2(F)F)c(=O)n1` [GEMCITABINE] registered a half-maximal activity concentration (AC50) in test [3] greater than 10 µM.

The molecule `CCCCCCOC(=O)CCC(=O)CN` [HEXAMINOLEVULINATE] gave a half-maximal activity concentration (AC50) in test [1] greater than 30 µM.

For the molecule `COC1=C(OC)C(=O)C(CCCCCCCCCCO)=C(C)C1=O` [IDEBENONE], the AC50 is 27.6 µM in test [2], greater than 10 µM in test [3], greater than 10 µM in test [4] and greater than 10 µM in test [5].

Molecule `CC1(C)C(/C=C/C=C/C=C/C=C2\N(CCCCS(=O)(=O)O)c3ccc4ccccc4c3C2(C)C)=[N+](CCCCS(=O)(=O)[O-])c2ccc3ccccc3c21` [INDOCYANINE GREEN ACID FORM] displayed a concentration at half-maximal activity (AC50) in test [1] of 6.8 µM.

The molecule `Nc1nc2c(c(=O)[nH]1)N(C=O)C(CNc1ccc(C(=O)N[C@@H](CCC(=O)O)C(=O)O)cc1)CN2` (some centres undefined) [LEUCOVORIN] had an AC50 in test [1] greater than 30 µM.

As to `CC#CCn1c(N2CCC[C@@H](N)C2)nc2c1c(=O)n(Cc1nc(C)c3ccccc3n1)c(=O)n2C` [LINAGLIPTIN], the AC50 was greater than 30 µM in test [2], greater than 10 µM in test [3], greater than 10 µM in test [4] and 12.3 µM in test [5].

The molecule `CC(C)OC(=O)C(C(=O)OC(C)C)=C1SC=CS1` [MALOTILATE] came in with an AC50 in test [1] greater than 30 µM.

On to `CCOC(=O)Nc1ccc2c(c1)N(C(=O)CCN1CCOCC1)c1ccccc1S2` [MORICIZINE], for which the AC50 in test [1] is greater than 30 µM.

On to `O=C1CN=C(c2ccccc2)c2cc(Cl)ccc2N1` [NORDAZEPAM], for which the AC50 is greater than 30 µM in test [2], greater than 10 µM in test [3], greater than 10 µM in test [4] and greater than 10 µM in test [5].

Turning to `CC(CCc1ccccc1)NC(C)C(O)c1ccc(O)cc1` (centres undefined) [NYLIDRIN], the AC50 is greater than 30 µM in test [2], 3.38 µM in test [3], 9.39 µM in test [4] and greater than 10 µM in test [5].

For `O=C1Nc2ccc(Cl)cc2C(c2ccccc2)=NC1O` (centres undefined) [OXAZEPAM], the AC50 in test [2] is greater than 30 µM; in test [3], greater than 10 µM; in test [4], greater than 10 µM; in test [5] it was greater than 10 µM.

In test [4], `CC1(C)C(C=C(Cl)Cl)C1C(=O)OCc1cccc(Oc2ccccc2)c1` (centres undefined) [PERMETHRIN] registered an AC50 greater than 10 µM.

For the molecule `CC(=O)c1ccc2c(c1)N(CCCN1CCC(CCO)CC1)c1ccccc1S2` [PIPERACETAZINE], the concentration at half-maximal activity (AC50) in test [3] is 0.0421 µM.

Turning to `CC(C)CC(N(C)C)C1(c2ccc(Cl)cc2)CCC1` (centres undefined) [SIBUTRAMINE], the AC50 in test [2] is greater than 30 µM; in test [3], greater than 10 µM; in test [4], greater than 10 µM; in test [5] it was greater than 10 µM.

With `[H]/N=C(/N)N[C@H]1[C@H](O)[C@@H](O)[C@H](O[C@@H]2O[C@@H](C)[C@](O)(C=O)[C@H]2O[C@@H]2O[C@@H](CO)[C@H](O)[C@@H](O)[C@@H]2NC)[C@@H](N/C(N)=N\[H])[C@@H]1O` [STREPTOMYCIN], the AC50 is greater than 30 µM in test [2], greater than 10 µM in test [3], greater than 10 µM in test [4] and greater than 10 µM in test [5].

`COc1ccc(C(CN(C)C)C2(O)CCCCC2)cc1` (centres undefined) [VENLAFAXINE]: the AC50 in test [2] is greater than 30 µM; in test [3] it was greater than 10 µM; in test [4], greater than 10 µM.

Consider `N#C[C@@H]1CCCN1C(=O)CNC12CC3CC(CC(O)(C3)C1)C2` [VILDAGLIPTIN], for which the AC50 in test [2] is greater than 30 µM; in test [3], greater than 10 µM; in test [4], greater than 10 µM; in test [5] it was greater than 10 µM.
